Measured values: patent publication US6028109A, “Use of agonists of the peroxisome proliferator activated receptor alpha for treating obesity” (Glaxo Wellcome Inc., priority 1996, dated 2000)

What was measured:
hPPARα = target: T1, hPPARα (Homo sapiens, UniProt Q07869); test: Transient cotransfection assay, GAL4-PPARα chimera in CV-1 cells (human PPARα); type: cell-based; conditions: transfection assay
T1 construct: amino acids 174-475 of PPARα; expressed in transfected cells; host or cells: CV-1 cells
T1 sequence (Q07869 167-468 limits assumed): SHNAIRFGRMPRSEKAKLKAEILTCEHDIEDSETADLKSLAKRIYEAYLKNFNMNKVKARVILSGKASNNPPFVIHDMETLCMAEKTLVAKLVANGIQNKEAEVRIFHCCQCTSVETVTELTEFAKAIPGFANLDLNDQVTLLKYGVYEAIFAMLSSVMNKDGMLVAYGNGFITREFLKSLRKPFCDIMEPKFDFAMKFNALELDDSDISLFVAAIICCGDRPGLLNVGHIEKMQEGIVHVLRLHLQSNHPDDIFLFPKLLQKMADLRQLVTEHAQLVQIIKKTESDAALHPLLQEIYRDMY
Text: (§1) A transient cotransfection assay was used to screen for PPARα activator activity of compounds of formula (I).
(§2) As mammalian cell lines contain endogenous nuclear receptors that can complicate interpretation of the results, we used an established chimera system in which the ligand-binding domain of the PPAR-α was fused to the DNA binding domain of the yeast transcription factor GAL4.The GAL4-PPARα chimera was cotransfected into CV-1 cells with a reporter construct containing five copies of the GAL4 binding site upstream of the thymidine kinase promotor driving secreted placental alkaline phosphatase (SPAP) as reporter.
(§3) GAL4-PPAR chimera and UAS-tk-CAT/SPAP reporters. […]
(§4) Transfection assay; SPAP reporter. […] 16 h later the medium was exchanged to DME medium supplemented with 10% delipidated fetal calf serum and the test compound at a concentration of 10^-5 M. After incubation for an additional 24 h SPAP activity and β-galactosidase activity were measured as previously described (Pfahl et al., 1990).
(§5) Transfection assay: CAT reporter. […] After incubation for an additional 24 h, chloramphenicol acetyl transferase (CAT) activity and β-galactosidase activity were measured as previously described (Pfahl et al., 1990). […]

GST-PPARα = test: Competition binding for PPARα against the radioligand of Example 2; conditions: 100 nM radioligand of Example 2, 1000-fold excess (100 microM) of competitor; no competitor 40,200 cpm bound
Procedure: a) Binding of the radioligand of Example 2 to PPARα The ligand binding domains of mouse and human PPARα were expressed in E. Coli as fusion proteins with glutathione-S-transferase (GST). DNA encoding the ligand binding domain of mouse and human PPARa was amplified via polymerase chain reaction and inserted in-frame into the bacterial expression vector pGEX-2T (Pharmacia). GST-mPPARα and GST-hPPARa fusion proteins were expressed in BL21(DE3)plysS cells. After a 2 hour induction with 1 mM IPTG, the cells were lysed by freeze/thaw in 1/10 volumes of a buffer containing 50 mM Tris (pH 8), 250 mM KCl, 10 mM DTT, 1 mM PMSF, and 1% Triton X-100. Lysates were clarified by centrifugation for 1 hr at 50,000 x g. 1.5 ml of a 50% glutathione-sepharose bead (Pharmacia)/phosphate buffered saline slurry was added to 10 ml of clarified lysate, the mixture incubated for 30 minutes, and the glutathione-sepharose bead-GST-PPARα complexes were then collected by centrifugation and washed twice in binding buffer containing 50 mM KCl, 10 mM Tris (pH 8), 1 mM DTT. The washed glutathione-sepharose bead-PPARα complexes were resuspended in 0.75 ml binding buffer containing 10% glycerol. […]

[1] = Change of body weight in hamsters on 1% cholesterol chow, 14 days oral dosing; type: in vivo, Golden Syrian hamsters; conditions: for change of body weight (gained): diet-only control gained 23.2 g; for change of body weight (lost): Compound B Test, diet-only control gained 13 g
Procedure: Male Golden Syrian hamsters (supplied by Charles River), weighing approximately 140-150 g at the start of the study, were subjected to the following dietary regime. On day 0, four groups of animals (n=6/group) were begun on a diet consisting of rodent chow containing 1% cholesterol. Three of the four groups on the cholesterol diet also began oral dosing with Compound A as described in Example 3 ([…]). Compound A was given as a suspension in 5% bicarbonate and 0.5% methyicellulose. The study was carried out for 14 days.
The above dietary regime was also carried out with Compound B, but the dosages of Compound B employed were 0.1, 0.5 and 1mglkg/day.
The changes of body weight observed were as follows: […]

mPPARα = target: T2, mPPARα (Mus musculus, UniProt P23204); test: Transient cotransfection assay, GAL4-PPARα chimera in CV-1 cells (mouse PPARα); type: cell-based; conditions: transfection assay
T2 construct: amino acids 174-475 of PPARα; expressed in transfected cells; host or cells: CV-1 cells
T2 sequence (P23204 167-468 limits assumed): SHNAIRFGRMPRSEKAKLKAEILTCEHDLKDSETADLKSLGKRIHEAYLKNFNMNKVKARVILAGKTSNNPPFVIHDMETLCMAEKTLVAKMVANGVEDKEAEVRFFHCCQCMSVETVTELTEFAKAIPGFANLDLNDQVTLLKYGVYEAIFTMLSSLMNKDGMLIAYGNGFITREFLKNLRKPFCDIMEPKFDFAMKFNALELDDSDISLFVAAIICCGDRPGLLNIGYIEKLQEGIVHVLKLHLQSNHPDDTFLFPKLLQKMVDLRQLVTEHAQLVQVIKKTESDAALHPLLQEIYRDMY
Text: as §1, §2, §3, §4, §5

| EC50 (hPPARα) [nM] | cpm bound (GST-PPARα) | EC50 (mPPARα) [nM] | Structure (SMILES) | change of body weight (gained) ([1]; 0.05 mg/kg/day oral) [g] | change of body weight (gained) ([1]; 0.1 mg/kg/day oral, Compound A Test) [g] | change of body weight (gained) ([1]; 0.25 mg/kg/day oral) [g] | change of body weight (gained) ([1]; 0.5 mg/kg/day oral, Compound A Test) [g] | change of body weight (lost) ([1]; 0.5 mg/kg/day oral) [g] | change of body weight (lost) ([1]; 1 mg/kg/day oral) [g] |
| --- | --- | --- | --- | --- | --- | --- | --- | --- | --- |
| 545 | 18,300 cpm | 13 | CCCCCCCN(CCc1ccc(OC(C)(C)C(=O)O)cc1)C(=O)Nc1ccc(F)cc1 [Compound A, 2-(4[2-(3-[4-fluorophenyl]-1-heptylureido)ethyl]-phenoxy)-2-methylpropionicacid] | 20 | 26.2 | 12.6 | 3.4 |  |  |
| 720 | 13,000 cpm | 25 | CCCCCCCN(CCc1ccc(OC(C)(C)C(=O)O)cc1)C(=O)Nc1ccc(F)cc1F [Compound B, 2-(4-[2-(3-[2,4-difluorophenyl]-1-heptylureido)ethyl]-phenoxy)-2-methylpropionic acid] |  |  |  |  | 12.3 | 12.4 |
